From patent publication US11730811B2, “Method for treating subject suffering from flavivirus infection” (priority 2017, dated 2023)

Tested on: human microvascular endothelial cells
Experiment: in vitro transwell permeability assay (streptavidin-HRP leakage) with DENV NS1
Assay type: cell-based
Conditions: hyaluronidase 0.5 unit/mL to 50 units/mL added with DENV NS1 3 μg/ml for 6 hours; FIG. 6
Description: Vascular leakage is an important feature in several diseases, such as septic shock, viral hemorrhagic fever, cancer metastasis and ischemia-reperfusion injuries. Thus, an in vitro endothelial permeability assay will provide insight into the establishment or progression of such diseases. The transwell permeability assays directly detect the penetration of a specific molecule, which can be detected by a spectrometer-based absorbance reader.
The permeability of human microvascular endothelial cells treated or not with DENV NS1 (3 μg/ml, Cat. No. ENZ-PRT105-0100, Enzo Life Sciences, Inc., NY, U.S.A.), was measured by an in vitro transwell permeability assay that mimics human endothelium in vivo (referring to http://www.bio-protocol.org/e2273). In brief, human microvascular endothelial cells (2×10^5) were grown in a 24-Transwell® (pore size: 0.4 μm, Cat. No. 3414; Corning, Kennebunk, Me., U.S.A.) for 5 days until a confluent monolayer was formed. […] Twenty microliters of medium, from each lower chamber, was transferred to a 96-well plate and analyzed for HRP activity by adding 100 μL 3,3′,5,5′-tetramethylbenzidine (TMB) substrate (Sigma-Aldrich, Cat. No. T4444, St. Louis, Mo., U.S.A.). Color development was detected by an EnSpire Multimode Reader (PerkinElmer, Upplands Väsby, Sweden) at 450 nm.

How did the “DENV NS1-induced endothelial hyper-permeability” value turn out when hyaluronidase was run?
Its value is “reverse the DENV NS1-induced endothelial hyper-permeability significantly”.
